Data as given in patent US12590123B2, “Compounds and methods for treating cancer, viral infections, and allergic conditions” (Washington University, priority 2019, dated 2026).

Molecular target: T1, KLK5 (Homo sapiens, UniProt Q9Y337)
T1 construct: purchased R&D Systems 1108-SE-010
T1 sequence (Q9Y337 23-293): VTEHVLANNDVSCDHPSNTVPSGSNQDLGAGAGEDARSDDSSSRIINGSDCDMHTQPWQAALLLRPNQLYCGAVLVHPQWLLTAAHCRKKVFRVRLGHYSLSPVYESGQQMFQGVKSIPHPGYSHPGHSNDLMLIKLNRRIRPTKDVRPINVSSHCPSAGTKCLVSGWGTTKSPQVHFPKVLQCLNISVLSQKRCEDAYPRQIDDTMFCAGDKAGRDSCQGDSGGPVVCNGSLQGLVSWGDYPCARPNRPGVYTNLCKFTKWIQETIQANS
Test: Fluorescent kinetic enzyme inhibitor assay of KLK5 (Boc-VPR-AMC)
Assay type: biochemical
Conditions: Table 4; 7.5 nM KLK5, 100 μM substrate
Description: Fluorescent Kinetic Enzyme Inhibitor Assay of KLK5: Inhibitors (11-pt serial dilutions, 0-20 μM final concentration in reaction) were serially diluted in DMSO (2% DMSO final concentration) and then mixed with KLK5 (#1108-SE-010, R&D Systems, Minneapolis, Minnesota) in black 384 well plates (Corning #3575. Corning, NY). The final assay concentration for KLK5 is 7.5 nM in TNC buffer (25 mM Tris, 150 mM NaCl, 5 mM CaCl2), 0.01% Triton X-100, pH 8). After thirty minutes incubation at room temperature, Boc-VPR-AMC substrate was added. The final substrate concentrations for assay is 100 μM. Changes in fluorescence (excitation at 380 nm and emission at 460 nm) were measured at room temperature over time in a Biotek Synergy 2 plate reader (Winnoski, VT). Using GraphPad Prism version 6.04 software program, (GraphPad Software, San Diego, CA, graphpad.com), a four parameter curve fit was used to determine the inhibitor IC50s from a plot of the mean reaction velocity versus the inhibitor concentration. The IC50 values represent the average of three or more separate experimental determinations.

## CC(=O)N[C@H]1CC(=O)NCCCC[C@@H](C(=O)N[C@@H](CCCNC(=N)N)C(=O)c2nc3ccccc3s2)NC(=O)[C@H](Cc2ccccc2)NC1=O [VD3112, (3S,6S,14S)-6-acetamido-N—((S)-1-(benzo[d]thiazol-2-yl)-5-guanidino-1-oxopentan-2-yl)-3-benzyl-2,5,8-trioxo-1,4,9-triazacyclotetradecane-14-carboxamide]
  IC50: 2.53 µM
